The structures appear in SMILES notation.

Chain of VEGFR2, unphosphorylated (P35968 20-1356): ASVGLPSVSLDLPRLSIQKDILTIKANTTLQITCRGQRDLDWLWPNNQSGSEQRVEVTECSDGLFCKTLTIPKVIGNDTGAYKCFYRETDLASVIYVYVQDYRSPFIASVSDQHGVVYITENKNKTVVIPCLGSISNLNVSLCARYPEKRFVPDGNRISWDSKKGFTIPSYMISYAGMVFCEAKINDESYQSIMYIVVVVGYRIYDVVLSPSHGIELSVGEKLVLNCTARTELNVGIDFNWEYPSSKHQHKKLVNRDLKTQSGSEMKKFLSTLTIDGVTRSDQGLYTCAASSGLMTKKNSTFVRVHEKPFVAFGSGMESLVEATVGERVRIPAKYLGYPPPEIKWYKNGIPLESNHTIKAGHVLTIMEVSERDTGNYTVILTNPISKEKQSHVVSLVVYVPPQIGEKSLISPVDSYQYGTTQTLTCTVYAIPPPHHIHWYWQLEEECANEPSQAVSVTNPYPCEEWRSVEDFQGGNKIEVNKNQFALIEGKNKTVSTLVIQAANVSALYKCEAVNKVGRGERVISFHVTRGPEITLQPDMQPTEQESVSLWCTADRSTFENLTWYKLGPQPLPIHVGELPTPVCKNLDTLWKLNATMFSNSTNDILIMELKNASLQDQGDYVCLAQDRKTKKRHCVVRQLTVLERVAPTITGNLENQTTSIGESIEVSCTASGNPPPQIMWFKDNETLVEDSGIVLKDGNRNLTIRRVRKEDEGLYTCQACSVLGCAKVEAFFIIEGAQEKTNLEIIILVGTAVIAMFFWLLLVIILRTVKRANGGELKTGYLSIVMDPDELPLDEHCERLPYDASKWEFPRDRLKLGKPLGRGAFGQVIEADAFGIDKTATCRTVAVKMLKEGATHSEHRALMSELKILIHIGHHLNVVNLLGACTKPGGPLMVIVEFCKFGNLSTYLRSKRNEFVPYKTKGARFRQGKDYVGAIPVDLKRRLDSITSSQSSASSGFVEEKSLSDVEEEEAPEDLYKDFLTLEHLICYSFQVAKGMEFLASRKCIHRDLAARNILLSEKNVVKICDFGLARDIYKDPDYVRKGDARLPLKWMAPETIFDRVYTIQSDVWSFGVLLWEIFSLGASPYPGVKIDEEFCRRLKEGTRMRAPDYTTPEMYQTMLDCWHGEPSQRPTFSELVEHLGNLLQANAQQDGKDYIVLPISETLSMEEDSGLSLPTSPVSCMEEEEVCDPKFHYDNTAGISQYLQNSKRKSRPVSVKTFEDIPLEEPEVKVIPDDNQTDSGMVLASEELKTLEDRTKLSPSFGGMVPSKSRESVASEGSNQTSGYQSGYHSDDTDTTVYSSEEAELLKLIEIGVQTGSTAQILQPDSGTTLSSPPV

The experiment concerns the target VEGFR2, unphosphorylated (Homo sapiens (Human), UniProt P35968). Briefly: VEGFR ADP GLO Assay. In kind it is biochemical. (ADP-Glo turns the ADP formed in a reaction into a luminescent signal.)
Consider `Cc1cc(C(=O)NCCN2CCCC2(C)C)sc1NC(=O)c1cnn2cc(-c3cnn(C)c3)sc12` [Example 182, N-(5-((2-(2,2-dimethylpyrrolidin-1-yl)ethyl)carbamoyl)-3-methylthiophen-2-yl)-2-(1-methyl-1H-pyrazol-4-yl)pyrazolo[5,1-b]thiazole-7-carboxamide], for which the IC50 was > 7.5 µM. Regarding `Cc1ncc(C(=O)NCCN2CCCC2(C)C)cc1NC(=O)c1cnn2cc(-c3c(C)n[nH]c3C)sc12` [Example 231, 2-(3,5-Dimethyl-1H-pyrazol-4-yl)-N-(5-((2-(2,2-dimethylpyrrolidin-1-yl)ethyl)carbamoyl)-2-methylpyridin-3-yl)pyrazolo[5,1-b]thiazole-7-carboxamide], the 50% inhibitory concentration (IC50) was > 7.5 µM. With `Cc1cc(C(=O)NCCN2CCCC2(C)C)sc1NC(=O)c1cnn2cc(-c3ccncc3)sc12` [Example 187, N-(5-((2-(2,2-dimethylpyrrolidin-1-yl)ethyl)carbamoyl)-3-methylthiophen-2-yl)-2-(pyridin-4-yl)pyrazolo[5,1-b]thiazole-7-carboxamide], the half-inhibitory concentration (IC50) was > 7.5 µM.

Take `COc1ncccc1-c1cn2ncc(C(=O)Nc3cc(NC(=O)OC[C@@H]4CCCN4C)cnc3C)c2s1` [Example 253, (S)-(1-methylpyrrolidin-2-yl)methyl (5-(2-(2-methoxypyridin-3-yl)pyrazolo[5,1-b]thiazole-7-carboxamido)-6-methylpyridin-3-yl)carbamate]: the half-inhibitory concentration (IC50) is > 7.5 µM. `CCc1cc(C(=O)NCCN2CCCC23CCC3)sc1NC(=O)c1cnn2cc(-c3cnn(C)c3)sc12` [Example 205, N-(5-((2-(5-azaspiro[3.4]octan-5-yl)ethyl)carbamoyl)-3-ethylthiophen-2-yl)-2-(1-methyl-1H-pyrazol-4-yl)pyrazolo[5,1-b]thiazole-7-carboxamide]: the half-inhibitory concentration (IC50) was > 7.5 µM. Take `Cc1cc(C(=O)NCCN(C)C2CCCC2)sc1NC(=O)c1cnn2cc(-c3cnn(C)c3)sc12` [Example 190, N-(5-((2-(cyclopentyl(methyl)amino)ethyl)carbamoyl)-3-methylthiophen-2-yl)-2-(1-methyl-1H-pyrazol-4-yl)pyrazolo[5,1-b]thiazole-7-carboxamide]: the 50% inhibitory concentration (IC50) is > 7.5 µM. Consider `Cn1cc(-c2cn3ncc(C(=O)Nc4sc(C(=O)NCCN5CCCC56CCC6)cc4C#N)c3s2)cn1` [Example 206, N-(5-((2-(5-azaspiro[3.4]octan-5-yl)ethyl)carbamoyl)-3-cyanothiophen-2-yl)-2-(1-methyl-1H-pyrazol-4-yl)pyrazolo[5,1-b]thiazole-7-carboxamide], for which the IC50 was > 2.5 µM.

Turning to `COc1ncccc1-c1cn2ncc(C(=O)Nc3cc(C(=O)NCCN4CCCC4(C)C)cnc3C)c2s1` [Example 226, N-(5-((2-(2,2-Dimethylpyrrolidin-1-yl)ethyl)carbamoyl)-2-methylpyridin-3-yl)-2-(2-methoxypyridin-3-yl)pyrazolo[5,1-b]thiazole-7-carboxamide], the IC50 is > 2.5 µM. For the compound `COc1ncccc1-c1cn2ncc(C(=O)Nc3cc(C(=O)NCCN4CCCC4C)cnc3C)c2s1` (centres unmarked) [Example 228, 2-(2-Methoxypyridin-3-yl)-N-(2-methyl-5-((2-(2-methylpyrrolidin-1-yl)ethyl)carbamoyl)pyridin-3-yl)pyrazolo[5,1-b]thiazole-7-carboxamide], the IC50 is > 0.833 µM.

For the compound `Cc1ncc(C(=O)NCCN2CCCC2(C)C)cc1NC(=O)c1cnn2cc(-c3cn(C)nc3CO)sc12` [Example 224, N-(5-((2-(2,2-dimethylpyrrolidin-1-yl)ethyl)carbamoyl)-2-methylpyridin-3-yl)-2-(3-(hydroxymethyl)-1-methyl-1H-pyrazol-4-yl)pyrazolo[5,1-b]thiazole-7-carboxamide], the IC50 was > 2.5 µM. To `COc1ncccc1-c1cn2ncc(C(=O)Nc3cc(C(=O)NCCN4CCCC4)cnc3C)c2s1` [Example 229, 2-(2-Methoxypyridin-3-yl)-N-(2-methyl-5-((2-(pyrrolidin-1-yl)ethyl)carbamoyl)pyridin-3-yl)pyrazolo[5,1-b]thiazole-7-carboxamide] belongs > 0.833 µM; to `Cc1ncc(C(=O)N2CC2CNC(C)(C)C)cc1NC(=O)c1cnn2cc(-c3cccc4c3cnn4C)sc12` (centres unmarked) [Example 239, N-(5-(2-((tert-butylamino)methyl)aziridine-1-carbonyl)-2-methylpyridin-3-yl)-2-(1-methyl-1H-indazol-4-yl)pyrazolo[5,1-b]thiazole-7-carboxamide], > 2.5 µM; to `Cc1ncc(NC(=O)CN2CCCC23CC3)cc1NC(=O)c1cnn2cc(-c3cnn(C)c3)sc12` [Example 16, N-(5-(2-(4-azaspiro[2.4]heptan-4-yl)acetamido)-2-methylpyridin-3-yl)-2-(1-methyl-1H-pyrazol-4-yl)pyrazolo[5,1-b]thiazole-7-carboxamide], > 7.5 µM. The figure for `Cc1ncc(NC(=O)OC2CN(C(C)(C)C)C2)cc1NC(=O)c1cnn2cc(-c3cnn(C)c3)sc12` [Example 252, 1-(tert-butyl)azetidin-3-yl (6-methyl-5-(2-(1-methyl-1H-pyrazol-4-yl)pyrazolo[5,1-b]thiazole-7-carboxamido)pyridin-3-yl)carbamate] is > 7.5 µM. As for `Cc1ncc(C(=O)NC2CN(C(C)(C)C)C2)cc1NC(=O)c1cnn2cc(-c3cnn(C)c3)sc12` [Example 237, N-(5-((1-(tert-butyl)azetidin-3-yl)carbamoyl)-2-methylpyridin-3-yl)-2-(1-methyl-1H-pyrazol-4-yl)pyrazolo[5,1-b]thiazole-7-carboxamide], the concentration for half-maximal inhibition (IC50) is > 7.5 µM. Take `Cc1ncc(NC(=O)OC[C@H]2CCCN2C)cc1NC(=O)c1cnn2cc(-c3cnn(C)c3)sc12` [Example 244, (R)-(1-methylpyrrolidin-2-yl)methyl (6-methyl-5-(2-(1-methyl-1H-pyrazol-4-yl)pyrazolo[5,1-b]thiazole-7-carboxamido)pyridin-3-yl)carbamate]: the IC50 is > 7.5 µM. Turning to `Cc1ncc(C(=O)NCCN2CC3CCC2CC3)cc1NC(=O)c1cnn2cc(-c3cnn(C4CC4)c3)sc12` [Example 181, N-(5-((2-(2-azabicyclo[2.2.2]octan-2-yl)ethyl)carbamoyl)-2-methylpyridin-3-yl)-2-(1-cyclopropyl-1H-pyrazol-4-yl)pyrazolo[5,1-b]thiazole-7-carboxamide], the IC50 is > 7.5 µM. The figure for `Cc1cc(C(=O)NCCN2CCCC(O)C2)sc1NC(=O)c1cnn2cc(-c3cnn(C)c3)sc12` (centres unmarked) [Example 200, N-(5-((2-(3-hydroxypiperidin-1-yl)ethyl)carbamoyl)-3-methylthiophen-2-yl)-2-(1-methyl-1H-pyrazol-4-yl)pyrazolo[5,1-b]thiazole-7-carboxamide] is > 7.5 µM. Take `Cc1ncc(NC(=O)CCN2CCCC2(C)C)cc1NC(=O)c1cnn2cc(-c3ccn(C)n3)sc12` [Example 12, N-(5-(3-(2,2-dimethylpyrrolidin-1-yl)propanamido)-2-methyl-pyridin-3-yl)-2-(1-methyl-1H-pyrazol-3-yl)pyrazolo[5,1-b]thiazole-7-carboxamide]: the half-maximal inhibitory concentration (IC50) is > 7.5 µM. On to `Cc1cc(C(=O)NCCN2CCC(O)CC2)sc1NC(=O)c1cnn2cc(-c3cnn(C)c3)sc12` [Example 191, N-(5-((2-(4-hydroxypiperidin-1-yl)ethyl)carbamoyl)-3-methylthiophen-2-yl)-2-(1-methyl-1H-pyrazol-4-yl)pyrazolo[5,1-b]thiazole-7-carboxamide], for which the IC50 is > 7.5 µM.

In general, IC50 refers to the concentration at which inhibition is half-maximal.

The values above are taken from patent US20240109917A1 (ACTELION PHARMACEUTICALS LTD, priority 2020, published 2024).
